Source: patent publication US20250346606A1, “CAMPTOTHECIN COMPOUND, PREPARATION METHOD THEREFOR, AND APPLICATION THEREOF” (SICHUAN KELUN-BIOTECH BIOPHARMACEUTICAL CO., LTD., priority 2021, published 2025)
Like-named read-outs stand apart in the source and are kept apart here.

Legend:
Type in all cases: cell-based, Human
[1] = test system: Jeko-1 cells; experiment: Inhibitory effect of compounds on Jeko-1 cell proliferation; conditions: read-out: IC50, inhibitory activity on Jeko-1 cell proliferation
Summary of the method: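 After 72 h incubation with compound, Jeko-1 cell viability was measured by Cell Counting-Lite 2.0 luminescence (10 min reaction). Inhibition was calculated relative to vehicle and cell-free background RLU, and IC50 was obtained by four-parameter curve fitting.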

[2] = test system: MDA-MB-231 cells; experiment: Inhibitory effect of compounds on MDA-MB-231 cell proliferation; conditions: read-out: IC50, inhibitory activity on MDA-MB-231 cell proliferation
Protocol: (1) Cell plating: First, tumor cells MDA-MB-231 were cultured in corresponding medium, then digested with trypsin, centrifuged, resuspended, and counted, and the cells were adjusted to an appropriate concentration for plating.
Co-incubation of the compound of the present disclosure and tumor cells: after the cells adhered to the wall, the medium was removed, and the diluted bioactive molecule (the compound of the present disclosure) was added to the wells of the above plate, and incubated for 72 h.
In vitro cell viability detection: After the incubation, 50 μL of Cell Counting-Lite™ 2.0 reagent (Vazyme/Novazyme) was added to each well, shaken and mixed well in the dark, reacted for 10 minutes, and then the detection was carried out with a microplate reader (manufacturer: BMG, Model: PHERAStar-FS) for reading. The background RLU was obtained by using cell-free medium (with Cell Counting-Lite™), and the vehicle RLU was obtained by using cell-containing medium (with Cell Counting-Lite™). Cell inhibition rate=1−(sample RLU−background RLU)/(solvent RLU−background RLU)×100%. According to the four-parameter model fitting curve, the half maximal inhibitory concentration (IC50) of the compound was calculated, and the detection results were shown in Table 18.

[3] = test system: SKOV-3 cells; experiment: Inhibitory effect of compounds on SKOV-3 cell proliferation; conditions: read-out: IC50, inhibitory activity on SKOV-3 cell proliferation
[4] = test system: HCC1806 cells; experiment: Inhibitory effect of compounds on HCC1806 cell proliferation
Summary of the method: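 HCC1806 cells, once adhered, were exposed to diluted compound for 72 h. Viability was read by Cell Counting-Lite 2.0 luminescence, inhibition calculated against vehicle and cell-free background RLU, and IC50 fitted with a four-parameter model.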

[5] = Homo sapiens, HCC1806, 72 h, read-out: IC50, inhibitory activity on HCC1806 cell proliferation, HCC1806 human breast squamous carcinoma cells, 72 h incubation, Cell Counting-Lite 2.0

| Molecule | IC50 ([1]; Homo sapiens, JeKo-1, 72 h) [nM] | IC50 ([2]; Homo sapiens, MDA-MB-231, 72 h) [nM] | IC50 ([3]; Homo sapiens, SK-OV-3, 72 h) [nM] | IC50 [4, 5] [nM] | IC50 ([1]; Jeko-1 human mantle cell lymphoma cells, 72 h incubation, Cell Counting-Lite 2.0) [nM] | IC50 ([4]; HCC1806 human breast squamous carcinoma cells, 72 h incubation, Cell Counting-Lite 2.0, read-out: IC50, inhibitory activity on HCC1806 cell proliferation) [nM] | IC50 ([2]; MDA-MB-231 human breast cancer cells, 72 h incubation, Cell Counting-Lite 2.0) [nM] | IC50 ([3]; SKOV-3 human ovarian cancer cells, 72 h incubation, Cell Counting-Lite 2.0) [nM] |
| --- | --- | --- | --- | --- | --- | --- | --- | --- |
| CC#C[C@@H](O)C(=O)N[C@H]1CCc2c(C)c(F)cc3nc4c(c1c23)Cn1c-4cc2c(c1=O)COC(=O)[C@]2(O)CC [Example 1 (1-1-A), (R)—N-((1S,9S)-9-ethyl-5-fluoro-9-hydroxy-4-methyl-10,13-dioxo-2,3,9,10,13,15-hexahydro-1H,12H-benzo[de]pyrano[3′,4′:6,7]indolizino[1,2-b]quinolin-1-yl)-2-hydroxypent-3-yneamide] | 1.33 | 364 | 7.81 | – | – | – | – | – |
| CC[C@@]1(O)C(=O)OCc2c1cc1n(c2=O)Cc2c-1nc1cc(Cl)c(C)c3c1c2[C@@H](NC(=O)[C@@H](O)C1CC1)CC3 [Example 5 (2-12-A), (2S)—N-((1S,9S)-5-chloro-9-ethyl-9-hydroxy-4-methyl-10,13-dioxo-2,3,9,10,13,15-hexahydro-1H,12H-benzo[de]pyrano[3′,4′:6,7]indolizino[1,2-b]quinolin-1-yl)-2-cyclopropyl-2-hydroxyacetamide] | – | 124 | 6.85 | 1.4 | – | – | – | – |
| (2S)—N-((1S,9S)-5-chloro-9-ethyl-9-hydroxy-4-methyl-10,13-dioxo-2,3,9,10,13,15-hexahydro-1H,12H-benzo[de]pyrano[3′,4′:6,7]indolizino[1,2-b]quinolin-1-yl)-2-hydroxypropylamine [Example 4 (2-7-A)] | – | – | – | – | 0.28 | 1.25 | 124 | 8.64 |
| CC[C@@]1(O)C(=O)OCc2c1cc1n(c2=O)Cc2c-1nc1cc(Cl)c(C)c3c1c2[C@H](NC(=O)[C@@H](O)C1CC1)CC3 [Example 5 (2-12-B), (2S)—N-((1R,9S)-5-chloro-9-ethyl-9-hydroxy-4-methyl-10,13-dioxo-2,3,9,10,13,15-hexahydro-1H,12H-benzo[de]pyrano[3′,4′:6,7]indolizino[1,2-b]quinolin-1-yl)-2-cyclopropyl-2-hydroxyacetamide] | – | – | 4.99 | 1.07 | – | – | – | – |
